Measurements as given in patent US11117888B2, “Irreversible inhibitors of pyruvate kinase M2 and the use thereof” (China Medical University, priority 2020, dated 2021).

Key:
Assay type in all cases: cell-based, human
[1] = test system: PC-9 cells; assay: ABPP-SILAC proteomic target identification; settings: 1 μM, 1 hour, LC-MS/MS
Procedure: As part of our effort to identify compound 1's target(s), we embarked on the use of compound 2 as an ABPP probe to conduct SILAC-based proteomic analysis. […] In this experiment, PC-9 cells were grown in cultural medium supplemented with unlabeled L-arginine and L-lysine (light medium) versus ^13C/^15N stable isotope-labeled L-arginine and L-lysine (heavy medium), generating two populations of cells (light versus heavy cells). Heavy PC-9 cells were then exposed to the ABPP (1 μM) for 1 hour to allow intracellular labelling of target proteins, while light cells were treated with DMSO vehicle under the same condition. […] These peptide mixtures were analyzed by liquid chromatography-tandem mass spectrometry (LC-MS/MS), and the resulting data were searched against various primary sequence databases by using the Mascot search engine. […]
SILAC analysis and click chemistry. […] The supernatant was transferred to a 1.5 mL microfuge tube, and the protein concentration was determined by the BCA protein assay (Thermo Fisher Scientific) and then normalized to 1 mg/mL. […]
Proteomic data analysis. Putative target proteins of compound 1 and protein-protein interaction network were identified and analyzed, respectively, through a web-based search of the STRING database (https://string-db.org/). […]

[2] = test system: lung cancer cell lines; assay: MTT cell viability assay, panel of lung cancer cell lines
Text: Cell lines, cell culture, biochemical reagents, and antibodies. MiaPaCa-2, AsPC-1, and Panc-1 human pancreatic cancer cells, MCF-7 and MDA-MB-231 breast cancer cells, SCC4 and SCC2059 oral cancer cells, PC-3 and LNCaP prostate cancer cells, H157, H460, H1975, PC-9 and H1650 lung cancer cells were obtained from the American Type Culture Collection (ATCC, Manassas, Va.). All these cells were maintained in recommended growth medium (RPMI 1640 or DMEM) supplemented with 10% fetal bovine serum (FBS) (Invitrogen, Carlsbad, Calif., USA) and antibiotics at 37° C. in a humidified incubator containing 5% CO2. For SILAC experiments, PC-9 cells were grown in SILAC DMEM medium (Thermo Fisher) supplemented with 10% dialyzed FBS and 100 μg/mL each of unlabeled L-arginine and L-lysine (light medium) or ^13C/^15N stable isotope-labeled L-arginine and L-lysine (heavy medium). […]
Cell viability assays. Drug effects on cell viability was assessed by 3-(4,5-dimethylthiazol-2-yl)-2,5-diphenyltetrazolium bromide ([…]) assays. […] The medium was then removed from each well and replaced with DMSO to dissolve the reduced MTT dye for subsequent colorimetric measurement of absorbance at 560 nm. Cell viabilities are expressed as percentages of viable cells relative to the corresponding vehicle-treated control group.

[3] = test system: PKM2, EGFR, Stat3, β-catenin in PC-9 cells; assay: Immunoblot analysis of oncogenic effectors in PC-9 cells; settings: Western blot, 24 hours
Procedure: Immunoblot analysis. PC-9 cells were seeded into 6 cm dish at a concentration of 5×10^5 cells/mL. After 24 hours, cells were treated with 0-1 μM compound 1 or DMSO alone for 24 hours. The cells were harvested at 24 hours, and protein extractions were carried out. The protein lysate was subjected to 10% SDS-PAGE and transferred to a nitrocellulose membrane (GE Healthcare Life Sciences). Protein expression was analyzed by Western blotting using primary antibodies against PKM2, EGFR, p-STAT3, STAT3, p-β-catenin (Cell Signaling Technology), β-catenin (Santa Cruz Biotechnology) and β-actin (Sigma-Aldrich), followed by incubation with horseradish peroxidase-conjugated secondary (Jackson ImmunoResearch Laboratories). Specific proteins were detected by chemiluminescence using ECL Plus Western Blotting Detection Reagents (GE Healthcare Biosciences).

[4] = test system: pyruvate kinase activity in PC-9 cells; assay: Pyruvate kinase activity assay in PC-9 cells; settings: 0.25 μM, 6 hours, relative to vehicle control
Procedure: Pyruvate kinase activity assays. PC-9 cells were seeded into 6 cm dishes at a concentration of 5×10^5 cells/mL. After 24 hours, cells were treated with 0.25 μM compound 1 or DMSO for 6 hours. The pyruvate kinase activity of compound 1-treated PC-9 and vehicle control cells was measured by using a commercial colorimetric assay kit from BioVision (Milpitas, Calif., USA) according to the manufacturer's protocol. In addition, to verify the specificity of compound 1 toward PKM2 versus PKM1, the inhibition of the kinase activity of recombinant PKM1 (SRP0415, Sigma-Aldrich) and recombinant PKM2 (SAE0021, Sigma-Aldrich) by compound 1 was conducted using the aforementioned assay kit.

Structure (SMILES)	protein targets labelled by ABPP probe [1]	antiproliferative effect in lung cancer cell lines [2]	expression and/or phosphorylation of PKM2, EGFR, Stat3, β-catenin [3]	pyruvate kinase activity in cells [4]
C#CCOc1ccc(-c2ccc(-c3cc(CCC(=O)NC)nn3-c3ccc(NC(=O)C#C)cc3)cc2)cc1 [compound 2, N-(4-(3-(3-(Methylamino)-3-oxopropyl)-5-(4′-(prop-2-yn-1-yloxy)-[1,1′-biphenyl]-4-yl)-1H-pyrazol-1-yl)phenyl)propiolamide]	the protein with the highest matching score was the 58 kDa PKM2	pattern of growth inhibition similar to that of compound 1		
C#CC(=O)Nc1ccc(-n2nc(CCc3nnc(C)o3)cc2-c2ccc(-c3ccc(C(F)(F)F)cc3)cc2)cc1 [compound 3]		high antiproliferative potencies	high efficacy in suppressing the phosphorylation/expression of various oncogenic biomarkers	equipotent in suppressing PKM2 kinase activity relative to compound 1
